Results on eleven compounds are retold here after publication PMC7381740 (Theranostics, 2020).

One data set deals with sigma binding sites. Further details: method as in PMID 8221112. Particulars: hippocampus of AD patients vs controls, autoradiography; cited from earlier work.
The next data set addresses σ1 receptor (S1R). Conditions: cited from earlier work.
For data set [1], the target named is S1R (Rattus norvegicus, UniProt Q9R0C9). The data set can be described thus: PET pre-saturation (blocking) studies of ^18F-IAM6067 uptake. Format: in vivo. Conditions: blocker 1 mg/kg i.v. 20-30 min before scan. The protocol: PET data were expressed as SUV.
Sequence of S1R (Rattus norvegicus, UniProt Q9R0C9) (Q9R0C9 whole entry): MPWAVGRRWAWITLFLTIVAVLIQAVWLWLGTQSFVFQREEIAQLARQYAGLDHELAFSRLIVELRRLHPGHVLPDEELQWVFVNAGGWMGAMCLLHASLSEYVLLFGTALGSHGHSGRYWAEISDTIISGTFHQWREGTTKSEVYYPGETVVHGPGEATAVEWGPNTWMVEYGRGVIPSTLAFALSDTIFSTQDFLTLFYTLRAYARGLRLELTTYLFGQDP
As the experiments with CM398 were performed later, scans without and with pre-treatment with CM398 were performed in the same animals and therefore were analysed using 2 way ANOVA with repeated measures for ROI and treatment. ANOVA were followed by a Sidak's post-hoc test.

The subject of data set [2] is S1R. Conditions: baboon pre-treated with haloperidol 1 mg/kg i.v.; cited from earlier work.
The test system of another data set is neurons (NeuN). The data set can be described thus: NeuN immunohistochemistry after intrastriatal AMPA. Format: in vivo, rat. How it is done: Animals were maintained normothermic (body temperature: 37.0 ± 0.4 °C) during the surgery through the use of a heating blanket (Homeothermic Blanket Control Unit, Harvard Apparatus Limited®, Edenbridge, Kent, UK). Twenty-four hours later, the rats were anesthetized again as described above and scanned with a 3T cryogen-free MRS 3000 scanner with a quadrature, rat head coil (MR Solutions, Guildford, UK), [35] to assess oedema (i.e. lesion size and location) immediately before the PET scan. Parameters for the T2-weighted RARE sequence were: repetition time = 4800 ms, base echo time = 17 ms, effective echo time = 68 ms, number of echoes = 8, bandwidth = 20 kHz, number of samples = 256, number of views = 240, number of averages = 1 with 25 slices of 1.06 mm, giving a final voxel size of 0.136 × 0.136 × 1.06 mm.
Immunohistochemistry was also carried out in rats that received intrastriatal AMPA to visualise NeuN (neuronal marker). Animals were culled by isoflurane overdose confirmed by cervical dislocation. The brains were collected, snap frozen using isopentane on dry ice and stored at -80 °C. Coronal brain sections (20 µm thick) were taken using a cryostat (Leica CM3050s, Leica Biosystems Nussloch GmbH, Germany) and stored at -80 °C. Sections were allowed to defrost and dry at room temperature for 20min and then fixed with 4% paraformaldehyde for 10 min before being washed (6 × 5 min) in phosphate buffered saline (PBS) and incubated for 30 min in 2% normal donkey serum and 0.1% Triton X-100 in PBS to permeabilise and block non-specific binding. Primary antibody incubation was carried out overnight at 4 °C with rabbit anti-NeuN (Abcam, ab177487, 1:500). Following incubation in primary antibody, PBS washes were repeated (3 × 10min) and incubation with the secondary antibody (Alexa Fluor 594nm Donkey anti-rabbit IgG 1:500) was carried out. Images of the lesioned striatum were collected on an Olympus BX51 upright microscope using a 10×/0.30 UPlanFLN objectives and captured using a Retiga 6000 Color and R6 camera through QCapture Pro 7 and Ocular Software (QImaging Inc.). Specific band pass filter sets were used to prevent bleed through from one channel to the next. NeuN staining was quantified using ImageJ (1.52n) [51]-[53] using 5 snapshots for the caudate putamen, 3 snapshots for the globus pallidus and 2 snapshots for the substantia nigra for each side of the brain (ipsi- and contralateral). Both the total number of neurons averaged over the snapshots and the percentage of stained areas were measured.
For NeuN staining analysis and ^18F-IAM6067 autoradiography in the AMPA model, percentage stained area, cell counts and ^18F-IAM6067 were analysed using paired t-tests (ipsi- vs contralateral) for the caudate-putamen, globus pallidus and substantia nigra.

Where [3] appears, read: globus pallidus, 24 h after intrastriatal AMPA 7.5 nmol, ipsi- vs contralateral.

“Also recorded” adds a separate entry of the source. Read-outs that look alike come from different tables or passages of the source.

Take `Cc1ccccc1NC(=N)Nc1ccccc1C` [^3H-DTG]: the decrease in binding in the data set with sigma binding sites is given as 26%.

For (S)-^18F-fluspidine, the inhibition constant Ki (as a rule, the dissociation constant of the complex between target and ligand, obtained from inhibition or displacement) at σ1 receptor (S1R) (enantiomers) is 2.3 nM.

`FCC[C@H]1OC2(CCN(Cc3ccccc3)CC2)c2ccccc21` [(R)-^18F-fluspidine]: on σ1 receptor (S1R) (enantiomers), the inhibitory constant (Ki) was 0.52 nM.

`COc1cc2c(cc1OC)CN(CCCCn1c(=O)n(C)c3ccccc31)CC2` [CM398]: the “effect of pre-saturation on ^18F-IAM6067 uptake vs baseline (in words)” value (from here on “effect … vs baseline (in words)”) at S1R [1] is reported as “no significant blockade; also recorded: did not reveal any significant difference; also recorded: did not result in a significant reduction”.

With `O=c1sc2cc(CCCF)ccc2n1CCN1CCCCCC1` [^18F-FTC-146], the Ki on σ1 receptor (S1R) is 0.0025 nM.

In the case of `O=C(CCCN1CCC(O)(c2ccc(Cl)cc2)CC1)c1ccc(F)cc1` [haloperidol], in the data set on S1R [2], the “displacement in specific receptor binding of ^18F-IAM6067 in all areas of the brain” value is recorded as 80%.

In the case of `Cc1onc(O)c1CC(N)C(=O)O` (stereo not drawn) [AMPA, α-amino-3-hydroxy-5-methyl-4-isoxazolepropionic acid], in the data set on neurons (NeuN) (caudate-putamen, 24 h after intrastriatal AMPA 7.5 nmol, ipsi- vs contralateral), the “loss of neurons, NeuN % stained area” value is on record as -81 ± 3%. In the data set on neurons (NeuN) (setting [3]), the “loss of neurons, NeuN % stained area” value was -71 ± 8% and the “loss of neurons, NeuN cell number” value was -56 ± 17%. Further, the “loss of neurons in the striatum (NeuN immunostaining)” value in the data set on neurons (NeuN) (striatum) is listed as 70-80%.

As to `CN(C)CCN(C)CCc1ccc(Cl)c(Cl)c1` [BD1047], on S1R [1], the “decrease (blocking) of ^18F-IAM6067 uptake in all areas of the brain” value is 79-90% and the “effect … vs baseline (in words)” value is listed as “full blocking”.

`FCCC1OC2(CCN(Cc3ccccc3)CC2)c2ccccc21` (stereo not drawn) [^18F-fluspidine]: the Ki on σ1 receptor (S1R) is 0.59 nM.

As to `COc1ccc(CCN2CCN(CCCc3ccccc3)CC2)cc1OC` [^11C-SA4503], the inhibition constant Ki on σ1 receptor (S1R) is 4.4 nM.

As to `Cn1ccc2cc3c(cc21)CCN3C(=O)Nc1cccnc1` [SB206553], at S1R [1], the “effect … vs baseline (in words)” value is recorded as “no significant blockade; also recorded: did not reveal any significant difference; also recorded: no significant difference”.
